From patent US7741355B2, “Small-molecule modulators of TRP-p8 activity” (Dendreon Corporation, priority 2006, dated 2010)
Read-outs that look alike come from different tables or passages of the source.

What was measured:
Trp-p8 = biological target: T1, Trp-p8 (Homo sapiens, UniProt Q7Z2W7, T58I); assay: ATP viability assay with CHO/Trp-p8 cells at 37° C.; type: cell-based
T1 construct: expressed in transfected cells; host or cells: CHO (Chinese Hamster Ovary) cells
Source text: (§1) Human Trp-p8 transfected CHO cells (referred to herein as CHO/Trp-p8) were generated for use in experiments of the present invention. Expression of Trp-p8 polypeptide in this transfectant and the absence of any endogenous expression in the non-transfected CHO was confirmed by western blot and immunofluorescence using a Trp-p8 specific antibody (GS2.20) as well as the calcium flux assay with Icilin (1-[2-hydroxyphenyl]-4-[3-nitrophenyl]-1,2,3,6-tetrahydropyrimidine-2-one) and menthol (2-isopropyl-5-methyl-cyclohexanol). Non-transfected CHO cells were used to establish the specificity of the effects of the compounds observed with CHO/Trp-p8.
This Example discloses an ATP viability assay suitable for screening for effective Trp-p8 agonists. The ATP viability assay described herein employs CHO cells expressing an exogenous Trp-p8 cDNA. This example further establishes that Trp-p8 agonists of the present invention are effective in decreasing the viability of Trp-p8 expressing cells.
The concentration of intracellular ATP declines very rapidly when metabolically active cells undergo necrosis and/or apoptosis. The ATP concentration and consequently the relative cell viability can be measured by established methods using commercially available reagents. In the agonist screening methodology disclosed herein, a compound that specifically decreases the viability of CHO/Trp-p8 cells is referred to as an agonist.
(§2) As a primary screen for efficacy and specificity for agonists, both the non-transfected CHO and CHO/Trp-p8 cells were exposed to 1 or 10 μM of test compounds in 1% dimethylsulfoxide (DMSO) or 1% DMSO (control) in a 96-well black walled, black-bottomed, cell-culture treated plate. DMSO was the solvent for all of the compounds tested. After 24-26 hours at 37° C., the cells were lysed and ATP concentration determined via a chemiluminescence assay using a commercially available reagent kit—Cell Titer-Glo (Promega; Madison, Wis.). […] (EC50 is defined herein as the agonist concentration at which there is a 50% reduction in relative cell viability).

Parent CHO = assay: ATP viability assay with non-transfected (parent) CHO cells; type: cell-based, Chinese Hamster; conditions: Cricetulus griseus
Source text: as §1, §2

[1] = Plasma concentrations in rats after a single oral dose; type: in vivo; conditions: rodents (FIG. 9A: rats), aqueous formulation, oral gavage
Source text: (§3) FIGS. 9A and 9B are graphs depicting the plasma concentrations of several compounds, as a function of time and dose, in rats (FIG. 9A), and dogs (FIG. 9B) after a single oral dose. […] Blood was collected at the indicated time points, and analyzed for drug levels.

[2] = Plasma concentrations in dogs after a single oral dose; type: in vivo; conditions: Beagle dogs (FIG. 9B), aqueous formulation, oral gavage
Source text: as §3

[3] = Sustained plasma levels after oral dosing (half-life, species not stated); type: in vivo; conditions: oral administration, read-out: t½ (sustained plasma levels) (converted)
Source text: as §3

CHO/Trp-p8 xenograft = assay: CHO/Trp-p8 murine tumor xenograft model; type: in vivo, mice
Experimental: FIGS. 6A-6B are graphs depicting results from an exemplary animal model suitable for testing and characterizing small-molecule Trp-p8 modulators of the present invention. Mice were injected subcutaneously with CHO/Trp-p8 cells, resulting in the formation of solid tumors. The length (longest dimension) and width (dimension perpendicular to and in the same plane as length) of each tumor was measured with Vernier calipers, and the tumor volume was approximated by a formula for the volume of an ellipsoid: 0.52*L*W^2. When the average tumor volume reached approximately 100 mm^3, the mice were randomized into groups. In FIG. 6A, the mice were administered a single dose of either a study compound as an aqueous formulation, or vehicle alone, by oral gavage. […] Tumors were then subsequently measured on the indicated days. […]
Mice were injected subcutaneously with CHO/Trp-p8 cells, resulting in the formation of solid tumors. The length (L; longest dimension) and width (W; dimension perpendicular to and in the same plane as length) of each tumor was measured with calipers, and the tumor volume was approximated by a formula for the volume of an ellipsoid: 0.52*L*W^2. […] Tumors were subsequently measured on the indicated days. […]
Mice were injected subcutaneously with CHO/Trp-p8 cells, resulting in the formation of solid tumors. […] Tumors were then subsequently measured on the indicated days. […]

[4] = tested on: CHO-K1 cells lacking Trp-p8; assay: Matched CHO (Trp-p8-) murine tumor xenograft model (CHO-K1 cells lacking Trp-p8); type: in vivo, mice; conditions: 100 mg/kg, single oral dose
Experimental: Mice were injected subcutaneously with CHO-K1 cells lacking Trp-p8, resulting in the formation of solid tumors. The length (L; longest dimension) and width (W; dimension perpendicular to and in the same plane as length) of each tumor was measured with Vernier calipers, and the tumor volume was approximated by a formula for the volume of an ellipsoid: 0.52*L*W^2. When the average tumor volume reached approximately 50 mm^3, the mice were randomized into groups, and administered either a single dose of the compound as an aqueous formulation, or vehicle, by oral gavage. Tumors were then subsequently measured on the indicated days. The data is presented as mean tumor volumes±standard error of the mean.

LuCaP = LuCaP murine tumor xenograft model expressing Trp-p8; type: in vivo, mice; conditions: intraperitoneal injection, once a day for 5 days; slower-growing tumor
Experimental: The LuCaP tumor model was obtained from Robert L. Vassella, Ph.D., Professor of Urology in the University of Washington's School of Medicine. The length (L; longest dimension) and width (W; dimension perpendicular to and in the same plane as length) of each tumor was measured with Vernier calipers, and the tumor volume was approximated by a formula for the volume of an ellipsoid: 0.52*L*W^2. When the average tumor volume reached approximately 150 mm^3, the mice were administered the compound, as an aqueous formulation, by intraperitoneal injection, once a day for 5 days. Tumors were then subsequently measured on the indicated days. The data is presented as mean tumor volumes±standard error of the mean.
Human prostate cancer xenografts expressing Trp-p8 (LuCaP, from Dr. Robert Vessella's lab in University of Washington—as assessed by in situ hybridization, quantitative polymerase chain reaction, and immunohistochemistry using a protein specific rabbit polyclonal antibody, T-904), as well as cell lines engineered to express Trp-p8, including CHO (Chinese Hamster Ovary) and EL-4 (Mouse Thymoma) cell lines, were used to establish tumor models in mice. Trp-p8 expression in the transfectants was confirmed by western blots and immunofluorescence using a Trp-p8 specific antibody (GS 2.20) as well as by response to known agonists in a calcium influx functional assay. […]

[5] = ATP viability assay, read-out: CHO/Trp-p8 EC50
[6] = Table 5, Formula I-E, CHO/Trp-p8 cells, 24-26 hours at 37° C., 50% reduction in relative cell viability, read-out: EC50

T1 sequence (Q7Z2W7 whole entry T58I): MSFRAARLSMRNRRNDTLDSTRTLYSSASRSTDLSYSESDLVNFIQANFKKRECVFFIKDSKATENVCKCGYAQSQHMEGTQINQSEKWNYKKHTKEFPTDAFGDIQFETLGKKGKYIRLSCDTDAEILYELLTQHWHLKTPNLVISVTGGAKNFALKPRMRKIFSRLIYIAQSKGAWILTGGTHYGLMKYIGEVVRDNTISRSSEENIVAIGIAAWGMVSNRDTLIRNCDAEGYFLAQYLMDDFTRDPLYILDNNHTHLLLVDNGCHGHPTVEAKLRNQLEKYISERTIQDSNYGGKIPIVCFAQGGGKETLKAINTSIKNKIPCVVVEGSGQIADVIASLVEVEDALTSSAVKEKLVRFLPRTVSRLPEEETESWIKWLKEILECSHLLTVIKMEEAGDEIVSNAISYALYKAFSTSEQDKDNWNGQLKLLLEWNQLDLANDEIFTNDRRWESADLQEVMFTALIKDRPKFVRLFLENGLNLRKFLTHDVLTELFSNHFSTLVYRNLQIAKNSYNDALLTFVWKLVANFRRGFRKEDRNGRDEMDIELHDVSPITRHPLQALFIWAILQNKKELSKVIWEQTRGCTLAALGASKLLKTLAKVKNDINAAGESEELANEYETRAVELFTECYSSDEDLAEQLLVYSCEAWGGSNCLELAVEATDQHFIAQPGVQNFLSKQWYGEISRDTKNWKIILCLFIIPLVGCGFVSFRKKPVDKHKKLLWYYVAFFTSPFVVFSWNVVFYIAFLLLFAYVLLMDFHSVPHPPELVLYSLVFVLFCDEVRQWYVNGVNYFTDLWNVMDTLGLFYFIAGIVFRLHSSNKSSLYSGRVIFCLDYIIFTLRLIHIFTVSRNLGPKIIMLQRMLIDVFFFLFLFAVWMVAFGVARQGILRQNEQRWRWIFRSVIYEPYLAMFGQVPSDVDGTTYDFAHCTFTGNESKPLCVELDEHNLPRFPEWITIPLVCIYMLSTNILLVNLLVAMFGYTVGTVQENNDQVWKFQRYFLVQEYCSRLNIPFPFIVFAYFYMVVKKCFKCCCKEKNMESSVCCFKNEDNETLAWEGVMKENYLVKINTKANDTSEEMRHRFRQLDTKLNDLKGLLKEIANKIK

| SMILES | EC50 (Trp-p8; [5]) [nM] | EC50 (Parent CHO) [nM] | exposure after a single oral administration [1] | exposure after a single oral administration [2] | half-life [3] [h] | EC50 (Trp-p8; [6]) [nM] | also measured |
| --- | --- | --- | --- | --- | --- | --- | --- |
| CC(C)[C@@H]1CC[C@@H](C)C[C@H]1C(=O)n1c(=O)n(CCN)c2ccccc21 [II] | 10 | > 10000 | prolonged exposure | prolonged exposure | ~9 | – | – |
| COc1ccc2c(c1)n(CCN)c(=O)n2C(=O)[C@@H]1C[C@H](C)CC[C@H]1C(C)C [Compound I] | 3 | > 10000 | prolonged exposure | prolonged exposure | ~9 | – | times more potent than Compounds II, III, and IV (Trp-p8; ATP viability assay): approximately 3 times; effect of treatment on tumor growth, CHO/Trp-p8 model (CHO/Trp-p8 xenograft; fast-growing tumor): attenuated growth, but did not cause regression; efficacy in the CHO/Trp-p8 xenograft model (CHO/Trp-p8 xenograft; single oral dose of 10 mg/kg): significant efficacy; efficacy in the matched CHO (Trp-p8-) model [4]: did not show significant efficacy; effect of treatment on tumor growth, LuCaP model (LuCaP): statistically significant regression, as well as growth-inhibition |
| CC(C)[C@@H]1CC[C@@H](C)C[C@H]1C(=O)Nc1cc(-c2ccccc2)nn1CCN [III] | 10 | > 10000 | prolonged exposure | prolonged exposure | ~9 | – | – |
| CC(C)[C@@H]1CC[C@@H](C)C[C@H]1C(=O)n1c(=O)n(CCN)c2cc(C(=O)N3CCOCC3)ccc21 [Compound 64] | – | – | – | – | – | 21 to 50 | – |
| CC(C)[C@@H]1CC[C@@H](C)C[C@H]1C(=O)n1c(=O)n(CCN)c2cc([S+](C)[O-])ccc21 (stereo partly drawn) [Compound 43, 3-(2-Amino-ethyl)-1-(2-isopropyl-5-methyl-cyclohexanecarbonyl)-5-methylsulfinyl-1,3-dihydro-benzoimidazol-2-one] | – | – | – | – | – | < 20 | – |
| CC(C)[C@@H]1CC[C@@H](C)C[C@H]1C(=O)n1c(=O)n(CCN)c2cc(C(=O)N(C)c3ccccc3)ccc21 [Compound 68] | – | – | – | – | – | 51 to 100 | – |
| CC(C)[C@@H]1CC[C@@H](C)C[C@H]1C(=O)n1c(=O)n(CCN)c2cc(C(=O)Nc3ccccc3)ccc21 [Compound 59] | – | – | – | – | – | 21 to 50 | – |
| CC(C)[C@@H]1CC[C@@H](C)C[C@H]1C(=O)NCCc1ccccc1CN [Compound 34] | – | – | – | – | – | – | EC50 (Trp-p8; Table 4, Formula I-D, CHO/Trp-p8 cells, 24-26 hours at 37° C., 50% reduction in relative cell viability, read-out: EC50): < 20 nM |
| CC(C)[C@@H]1CC[C@@H](C)C[C@H]1C(=O)n1c(=O)n(CCN)c2cc(C(=O)NCCO)ccc21 [Compound 52] | – | – | – | – | – | < 20 | – |
| CSc1ccc(NC(=O)[C@@H]2C[C@H](C)CC[C@H]2C(C)C)c(NCCN)c1 [Compound 4, 2-Isopropyl-5-methyl-cyclohexanecarboxylic acid [2-(2-amino-ethylamino)-4-methylsulfanyl-phenyl]amide] | – | – | – | – | – | – | EC50 (Trp-p8; Table 1, Formula I-A, CHO/Trp-p8 cells, 24-26 hours at 37° C., 50% reduction in relative cell viability, read-out: EC50): < 20 nM |
